Some test systems named below: ACHN renal; EKVX NSCLC; HCC-2998 colon; HL-60(TB) leukemia; HOP-18 NSCLC; HOP-62 NSCLC; OVCAR-3 ovarian; SF-539 CNS; TK-10 renal; SNB-78 CNS.
Common to all, as to assay: growth of human tumour cells (NCI), 48 h

In PubChem BioAssay (NCI) one finds GI50 and TGI data, which are given here for ten compounds.

Values joined by “and” are separate entries in the source; they are usually repeats but may differ in a detail not shown here. Equal values may be shown once.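 Each compound was tested at five concentrations against cells in 96-well plates for 48 hours. GI50 marks 50% less growth. TGI: concentration producing complete growth inhibition.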

As for `Cl.[O-]c1cccc2cccnc12.[O-]c1cccc2cccnc12.[O-]c1cccc2cccnc12.[O-]c1cccc2cccnc12.[Ti+4]`, the GI50 was 2.62 µM with ACHN renal; 0.916 µM in the test on EKVX NSCLC; 2.1 µM with HCC-2998 colon; 0.226 µM in the test on HL-60(TB) leukemia; 4.7 µM with HOP-62 NSCLC; 0.121 µM in the test with OVCAR-3 ovarian. The GI50 was 2.06 µM with SF-539 CNS and 53.7 µM with TK-10 renal. In addition, the TGI in the test with ACHN renal was > 100 µM; in the test with EKVX NSCLC, > 27.4 µM; in the test on HCC-2998 colon, 4.5 µM; in the test with HOP-18 NSCLC, > 100 µM; with HOP-62 NSCLC, 59.6 µM; in the test on OVCAR-3 ovarian, 0.621 µM. For the same compound, the TGI with SF-539 CNS is 14.4 µM; in the test with TK-10 renal, > 100 µM.

As for `Cc1cnc(-c2ccc(-c3ccc(NC(=O)Nc4cccc(C(F)(F)F)c4)cc3F)c3c2C(=O)NC3)[nH]1`, the GI50 was 1.97 µM with ACHN renal; 26 µM with EKVX NSCLC; 28.2 µM with HCC-2998 colon; 43.4 µM with HL-60(TB) leukemia; 3.55 µM in the test on HOP-62 NSCLC; 14.4 µM with OVCAR-3 ovarian. Moreover, the GI50 is 0.251 µM in the test with SF-539 CNS and 15.5 µM in the test on TK-10 renal. For the same compound, the TGI was > 52.8 µM with ACHN renal; > 50.6 µM with EKVX NSCLC; > 59.2 µM in the test with HCC-2998 colon; > 100 µM in the test with HL-60(TB) leukemia; > 50 µM in the test on HOP-62 NSCLC; 36.7 µM in the test on OVCAR-3 ovarian. In addition, the TGI in the test on SF-539 CNS is 22.7 µM; in the test with TK-10 renal it was > 58.5 µM.

Turning to `O=C(C(=O)c1cccnc1)c1cccnc1`, the GI50 in the test with ACHN renal, in the test on EKVX NSCLC, in the test with HCC-2998 colon, in the test on HL-60(TB) leukemia, with HOP-62 NSCLC and with OVCAR-3 ovarian was > 100 µM each time. In addition, the GI50 with SF-539 CNS and in the test on TK-10 renal was > 100 µM in each case. The TGI in the test with ACHN renal, in the test on EKVX NSCLC, with HCC-2998 colon, in the test with HL-60(TB) leukemia, in the test with HOP-62 NSCLC and with OVCAR-3 ovarian was > 100 µM in each case. In addition, the TGI in the test on SF-539 CNS and in the test with TK-10 renal was > 100 µM in each case.

For `CSc1nc(SC)c2c(C)c(Br)[nH]c2n1`, the TGI with ACHN renal, in the test with EKVX NSCLC, with HCC-2998 colon, in the test with HL-60(TB) leukemia, with HOP-62 NSCLC and in the test on OVCAR-3 ovarian was > 100 µM each time. For the same compound, the TGI with SF-539 CNS and in the test on TK-10 renal was > 100 µM in each case.

`C=C(C)C1CC=C(C)C(O)([C@@]2(O)C[C@H](C(=C)C)CC=C2C)C1` (stereo not given in full): the TGI with ACHN renal is 47.7 µM; in the test on HCC-2998 colon, 35.7 µM; in the test on HL-60(TB) leukemia, 47.2 µM; with HOP-62 NSCLC it was 35 µM; in the test with OVCAR-3 ovarian it was 29.6 µM; in the test on SF-539 CNS, 42.1 µM. The TGI with SNB-78 CNS and in the test on TK-10 renal was > 100 µM each time.

For `CC(=O)OCC1OC([S-])C(OC(C)=O)C(OC(C)=O)C1OC(C)=O.[Au+].c1ccc(CN2[CH-]N(Cc3ccccc3)C(c3ccccc3)=C2c2ccccc2)cc1`, the GI50 in the test on ACHN renal was 1.87 µM and 0.674 µM; in the test with EKVX NSCLC it was 2.92 µM and 0.523 µM; in the test on HCC-2998 colon, 1.64 µM and 0.625 µM; with HL-60(TB) leukemia it was 2.57 µM and 0.573 µM; in the test on HOP-62 NSCLC it was 4.56 µM and 1.11 µM; in the test on OVCAR-3 ovarian it was 1.8 µM and 0.444 µM. The GI50 is 2.96 µM and 0.855 µM with SF-539 CNS; 2.66 µM and 0.796 µM in the test with TK-10 renal. Also, the TGI with ACHN renal was 3.62 µM and 2.72 µM; in the test on EKVX NSCLC, 9.53 µM and 4.27 µM; in the test on HCC-2998 colon, 3.34 µM and 1.9 µM; with HL-60(TB) leukemia, 7.57 µM and 2.35 µM; in the test with HOP-62 NSCLC, 19.4 µM and 4.59 µM; in the test with OVCAR-3 ovarian it was 3.25 µM and 1.28 µM. For the same compound, the TGI is 10.4 µM and 3.81 µM in the test with SF-539 CNS; 8.34 µM and 3.8 µM with TK-10 renal.

As for `CC[C@H](C)[C@H](NC(=O)[C@H]1CCCCN1C)C(=O)N(C)[C@H](C[C@@H](OC(C)=O)c1nc(C(=O)NC23C4C5C2C2C3C4C52C(=O)OC)cs1)C(C)C` (stereo not given in full), the GI50 in the test on ACHN renal is 0.0189 µM and 0.0025 µM; in the test on EKVX NSCLC, 0.027 µM and 0.011 µM; in the test on HCC-2998 colon, 0.00336 µM and 0.0025 µM; in the test with HL-60(TB) leukemia, 0.000317 µM and < 0.0025 µM; in the test on HOP-62 NSCLC it was 0.00265 µM and 0.0025 µM; with OVCAR-3 ovarian it was 0.000489 µM and < 0.0025 µM. Moreover, the GI50 in the test with SF-539 CNS was 0.00115 µM and 0.0025 µM; with TK-10 renal, 0.00424 µM. Moreover, the TGI is 4.03 µM with ACHN renal; > 25 µM in the test with EKVX NSCLC; 14.3 µM in the test on HCC-2998 colon; 0.00196 µM and < 0.0025 µM in the test on HL-60(TB) leukemia; > 25 µM in the test with HOP-62 NSCLC; 0.0114 µM and 0.00941 µM in the test on SF-539 CNS.

Turning to `CCN(CC)CCOc1ccc(NC(=O)C(C(C)C)N2C(=O)/C(=C/c3ccc(Br)cc3)SC2=S)cc1` (stereo not given), the GI50 with ACHN renal was 1.78 µM; in the test on EKVX NSCLC it was 5.24 µM; with HCC-2998 colon, 2.21 µM; in the test with HL-60(TB) leukemia, 4.96 µM; with HOP-62 NSCLC, 2.36 µM; in the test on OVCAR-3 ovarian, 1.95 µM. Further, the GI50 was 1.87 µM in the test with SF-539 CNS and 2.17 µM with TK-10 renal. The TGI is 3.25 µM with ACHN renal; 18.8 µM in the test with EKVX NSCLC; 5.13 µM in the test on HCC-2998 colon; 20.8 µM in the test with HL-60(TB) leukemia; 7.11 µM with HOP-62 NSCLC; 4.08 µM in the test on OVCAR-3 ovarian. The TGI in the test on SF-539 CNS came to 3.55 µM; in the test with TK-10 renal, 5.09 µM.

Consider `CN(C)C[C@@H]1CCn2cc(c3ccccc32)C2=C(C(=O)NC2=O)c2cn(c3ccccc23)CCO1`, for which the GI50 in the test on ACHN renal is 2.04 µM; with EKVX NSCLC it was 3.92 µM; in the test on HCC-2998 colon it was 0.713 µM; in the test with HL-60(TB) leukemia, 1.6 µM; with HOP-62 NSCLC it was 2.54 µM; in the test on OVCAR-3 ovarian, 2.65 µM. The GI50 in the test on SF-539 CNS is 1.08 µM; with TK-10 renal, 2.22 µM. In addition, the TGI with ACHN renal was > 10 µM; in the test on EKVX NSCLC it was > 10 µM; with HCC-2998 colon it was > 10 µM; in the test on HL-60(TB) leukemia, 3.75 µM; in the test on HOP-62 NSCLC, > 10 µM; in the test on OVCAR-3 ovarian it was > 10 µM. For the same compound, the results for the TGI in the test on SF-539 CNS and in the test on TK-10 renal were 2.45 µM and > 10 µM, respectively.

For the compound `O=C1C(c2ccccc2)=[N+]([O-])c2cc([N+](=O)[O-])ccc21`, the TGI was 56.9 µM in the test with ACHN renal; 34.5 µM in the test on EKVX NSCLC; 77.4 µM in the test with HCC-2998 colon; 30.1 µM in the test with HL-60(TB) leukemia; > 100 µM in the test with HOP-18 NSCLC; > 100 µM with HOP-62 NSCLC. Besides, the TGI with OVCAR-3 ovarian amounted to 36.8 µM; with SF-539 CNS it was 57.3 µM; with TK-10 renal it was 52.4 µM.
